In US7652063B2, “10-hydroxy-11-dihydroprostaglandin analogs as selective EP4 agonists” (Allergan, Inc., priority 2004, dated 2010) one finds EC50 and IC50 data, which are given here for two compounds.

One assay has as its target T1, hTP (Homo sapiens, UniProt P21731).
T1 construct: expressed in transfected cells; host or cells: HEK-293(EBNA)
T1 sequence (P21731 1-343): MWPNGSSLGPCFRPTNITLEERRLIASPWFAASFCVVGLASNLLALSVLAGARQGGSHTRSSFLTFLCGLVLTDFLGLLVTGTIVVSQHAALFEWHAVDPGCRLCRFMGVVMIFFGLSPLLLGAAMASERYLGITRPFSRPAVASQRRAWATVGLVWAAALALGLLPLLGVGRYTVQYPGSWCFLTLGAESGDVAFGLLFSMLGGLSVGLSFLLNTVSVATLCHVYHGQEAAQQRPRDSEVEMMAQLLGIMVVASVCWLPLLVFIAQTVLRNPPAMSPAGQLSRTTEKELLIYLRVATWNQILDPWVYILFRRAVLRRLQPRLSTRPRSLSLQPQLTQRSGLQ
As to the kind of experiment: FLIPR calcium signal, hTP. In kind it is cell-based. Conditions: HEK-293(EBNA) cells, read-out: FUNCTIONAL (nm) HTP. The method, then: (§1) Methods for Flipr™ Studies
(§2) HEK-293(EBNA) cells, stably expressing one type or subtype of recombinant human prostaglandin receptors (prostaglandin receptors expressed: hDP/Gqs5; hEP1; hEP2/Gqs5; hEP3A/Gqi5; hEP4/Gqs5; hFP; hIP; hTP), were cultured in 100 mm culture dishes in high-glucose DMEM medium containing 10% fetal bovine serum, 2 mM 1-glutamine, 250 μg/ml geneticin (G418) and 200 μg/ml hygromycin B as selection markers, and 100 units/ml penicillin G, 100 μg/ml streptomycin and 0.25 μg/ml amphotericin B.
(§3) (b) Calcium Signal Studies on the Flipr™
(§4) Cells were seeded at a density of 5×10^4 cells per well in Biocoat® Poly-D-lysine-coated black-wall, clear-bottom 96-well plates (Becton-Dickinson) and allowed to attach overnight in an incubator at 37° C. Cells were then washed two times with HBSS-HEPES buffer (Hanks Balanced Salt Solution without bicarbonate and phenol red, 20 mM HEPES, pH 7.4) using a Denley Cellwash plate washer (Labsystems). […]
(§5) Cells were excited with an Argon laser at 488 nm, and emission was measured through a 510-570 nm bandwidth emission filter (FLIPR™, Molecular Devices, Sunnyvale, Calif.). […] The peak increase in fluorescence intensity was recorded for each well. […] The peak fluorescence change in each drug-containing well was then expressed relative to the controls. […]

Another assay concerns the target T2, EP4 receptors (Homo sapiens, UniProt P35408).
T2 construct: expressed in transfected cells; host or cells: HEK-293 (membrane fraction)
Nature of the assay: Radioligand binding, hEP4. To be noted: HEK-293 membranes, competition vs 5 nM [3H]-PGE2. On the procedure: Cells Stably Expressing EP1, EP2, EP4 and FP Receptors
HEK-293 cells stably expressing the human or feline FP receptor, or EP1, EP2, or EP4 receptors were washed with TME buffer, scraped from the bottom of the flasks, and homogenized for 30 sec using a Brinkman PT 10/35 polytron. TME buffer was added to achieve a final 40 ml volume in the centrifuge tubes (the composition of TME is 100 mM TRIS base, 20 mM MgCl2, […]; 10N HCl is added to achieve a pH of 7.4).
The cell homogenate was centrifuged at 19000 r.p.m. for 20 min at 4° C. using a Beckman Ti-60 rotor. The resultant pellet was resuspended in TME buffer to give a final 1 mg/ml protein concentration, as determined by Biorad assay. Radioligand binding competition assays vs. [^3H-]17 -phenyl PGF2α (5 nM) were performed in a 100 μl volume for 60 min. Binding reactions were started by adding plasma membrane fraction. The reaction was terminated by the addition of 4 ml ice-cold TRIS-HCl buffer and rapid filtration through glass fiber GF/B filters using a Brandel cell harvester. The filters were washed 3 times with ice-cold buffer and oven dried for one hour.
[^3H-] PGE2 (specific activity 180 Ci mmol) was used as the radioligand for EP receptors. [^3H] […] 17-phenyl PGF2α and non-specific binding determined with 10^−5 M of unlabeled PGE2, or 17-phenyl PGF2α, according to receptor subtype studied.

A further assay deals with T3, HEP3D (Homo sapiens, UniProt P43115).
T3 sequence (P43115 1-374 isoform P43115-4): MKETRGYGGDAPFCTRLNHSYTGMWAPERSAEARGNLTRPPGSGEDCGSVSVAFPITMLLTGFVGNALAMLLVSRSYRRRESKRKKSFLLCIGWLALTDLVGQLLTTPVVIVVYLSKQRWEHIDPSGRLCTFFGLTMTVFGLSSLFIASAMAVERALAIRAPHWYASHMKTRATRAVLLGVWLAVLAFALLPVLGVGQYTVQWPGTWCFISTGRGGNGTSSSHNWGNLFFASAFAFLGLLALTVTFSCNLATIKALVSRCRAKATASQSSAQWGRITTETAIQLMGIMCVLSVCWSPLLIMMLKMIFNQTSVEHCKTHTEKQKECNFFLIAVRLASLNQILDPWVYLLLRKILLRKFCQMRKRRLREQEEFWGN
As to the kind of experiment: Radioligand binding, hEP3D. Conditions: competition vs 5 nM [3H]-PGE2.

For another assay, the target named is T4, hEP4/Gqs5 (Homo sapiens, UniProt P35408).
T4 construct: expressed in transfected cells; host or cells: HEK-293(EBNA)
T4 sequence (P35408 whole entry): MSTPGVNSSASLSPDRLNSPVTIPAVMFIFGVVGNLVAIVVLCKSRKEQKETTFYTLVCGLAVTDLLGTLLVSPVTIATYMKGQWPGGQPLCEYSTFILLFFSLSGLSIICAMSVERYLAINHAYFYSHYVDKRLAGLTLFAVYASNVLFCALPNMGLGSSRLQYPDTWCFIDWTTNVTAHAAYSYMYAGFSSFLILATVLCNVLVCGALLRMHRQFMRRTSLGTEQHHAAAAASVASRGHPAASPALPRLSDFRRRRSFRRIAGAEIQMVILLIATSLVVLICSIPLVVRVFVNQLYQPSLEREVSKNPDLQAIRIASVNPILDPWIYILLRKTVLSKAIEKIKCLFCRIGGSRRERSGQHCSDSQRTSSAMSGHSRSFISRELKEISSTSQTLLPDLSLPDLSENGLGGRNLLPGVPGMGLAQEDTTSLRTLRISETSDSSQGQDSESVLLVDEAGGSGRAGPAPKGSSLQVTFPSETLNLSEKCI
As to the kind of experiment: FLIPR calcium signal, hEP4. It counts as cell-based. Conditions: HEK-293(EBNA) cells, read-out: FUNCTIONAL (nm) HEP4. On the procedure:
as §1, §2, §3, §4, §5

T2 sequence (P35408 whole entry): as above

`O=C(O)CCC/C=C\C[C@H]1C(=O)C(O)C[C@@H]1/C=C/C(O)CCc1sc2ccccc2c1Cl` (single isomer, unassigned) [Compound 9L]: the results for the EC50 on hTP and on hEP4/Gqs5 were over 10 µM and 0.078 µM, respectively. Besides, the IC50 was found to be 0.2 µM at EP4 receptors and 8.7 µM on HEP3D.

Regarding `O=C(O)CCC/C=C\C[C@H]1C(=O)C(O)C[C@@H]1/C=C/C(O)CCc1sc2ccccc2c1Cl` (single isomer, unassigned) [Compound 9H], the IC50 on EP4 receptors is 0.17 µM; at HEP3D, over 10 µM. In addition, the EC50 on hEP4/Gqs5 is 0.053 µM.
